Results taken from PMC9105110, “Changes in Biochemical Properties and Activity of Trypsin-like Protease (Litopenaeus vannamei) Treated by Atmospheric Cold Plasma (ACP)” (Foods, 2022).

Test system: T1, trypsin-like protease (trypsin) from Litopenaeus vannamei
T1 construct: native, purified from hepatopancreas (ammonium sulfate, Q-Sepharose FF); single band about 33 kDa on SDS-PAGE
Assay: absorbance at […] nm, Lineweaver-Burk plot
Format: biochemical, Penaeus vannamei
Details: 20 mM Tris-HCl pH 8.0, 37 °C, 20 min, 0.4-2.4 mM substrate; untreated control (no cold plasma)

SMILES: N=C(N)NCCCC(NC(=O)c1ccccc1)C(=O)Nc1ccc([N+](=O)[O-])cc1 (racemic) [BAPNA]
- Km: 4.16 ± 0.01 mM
